Test results from ChEMBL document CHEMBL1123169, “Structurally specific binding of halogenated biphenyls to thyroxine transport protein” (J Med Chem, 1986).

Tests used:
[1] = biological target: Transthyretin (Homo sapiens) (UniProt P02766); test: Concentration at which 50% total binding to prealbumin protein.
[2] = biological target: Transthyretin (Homo sapiens) (UniProt P02766)
Description: Relative binding affinity to prealbumin was determined from the competition binding assays and is expressed relative to L-T4
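For Binding affinity in this document: competition binding to prealbumin, with affinity given relative to L-T4 as the reference ligand.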

Concentration [1]	SMILES	Binding affinity [2]
	Oc1ccc(-c2cc(Cl)c(Cl)c(Cl)c2Cl)cc1	286
	Clc1cccc(Cl)c1-c1c(Cl)cccc1Cl	< 5
	Clc1cc(-c2cc(Cl)c(Cl)c(Cl)c2)cc(Cl)c1Cl	313
	Oc1c(-c2cc(Cl)c(Cl)c(Cl)c2)cc(Cl)c(Cl)c1Cl	208
	NC(Cc1cc(I)c(Oc2cc(I)c(O)c(I)c2)c(I)c1)C(=O)O (configuration not stated)	63
	NC(Cc1ccc(Oc2cc(I)c(O)c(I)c2)c(I)c1)C(=O)O (configuration not stated)	23
	Oc1c(Cl)cc(-c2ccccc2)cc1Cl	851
	Oc1ccc(-c2c(Cl)cc(Cl)cc2Cl)cc1	46
	N[C@@H](Cc1cc(I)c(Oc2cc(I)c(O)c(I)c2)c(I)c1)C(=O)O	100
	Oc1c(Cl)cc(Cl)cc1-c1ccccc1	28
	Clc1cc(Cl)cc(-c2cc(Cl)cc(Cl)c2)c1	411
	Oc1c(Cl)cc(-c2ccc(Cl)cc2)cc1Cl	501
2.5 nM	Oc1ccc(-c2c(Cl)c(Cl)c(O)c(Cl)c2Cl)cc1	398
0.87 nM	O=C(O)c1cc(I)c(-c2cc(I)c(O)c(I)c2)c(I)c1	1150
3 nM	NC(Cc1cc(I)c(-c2cc(I)c(O)c(I)c2)c(I)c1)C(=O)O (racemic)	331
	N[C@@H](Cc1cc(I)c(Oc2ccc(O)c(I)c2)c(I)c1)C(=O)O	2
	c1ccc(-c2ccccc2)cc1	< 5

SMILES	Concentration [1]	Binding affinity [2]
Oc1c(Cl)cc(-c2cc(Cl)c(O)c(Cl)c2)cc1Cl	1.5 nM	661
